This is an account of results in patent US10772879B2, “Pharmaceutical formulations” (TORRENT PHARMACEUTICALS LIMITED, priority 2015, dated 2020).

Data set [1] can be described thus: Oral bioavailability in rats (data on file). It is filed as in vivo. As to conditions: administered orally to rats.
A short description of data set [2]: Assessment of oral pharmacokinetics / bioavailability in jugular vein cannulated Wistar rats. The class given is in vivo. As to conditions: 10 mg/kg, Wistar rats (n=5), Mean. The procedure: Bioavailability of 1-(2-thien-2′-yl-2-oxo-ethyl)-3-(methanesulfonyl hydrazine carbonyl) pyridinium compound was checked using formulations as given in Table 2.
The assessment of oral pharmacokinetics was carried out. […] The blood samples were withdrawn at pre-determined time points; pre-dose (0.0 hr), 0.25, 0.5, 1, 2, 4, 6, 8, 12 and 24 hrs post dose. Plasma obtained at each time point was subjected to quantification of 1-(2-thien-2′-yl-2-oxo-ethyl)-3-(methanesulfonyl hydrazine carbonyl) pyridinium compound. LC-MS/MS method was used for the quantification of 1-(2-thien-2′-yl-2-oxo-ethyl)-3-(methanesulfonyl hydrazine carbonyl) pyridinium compound using an internal standard. The plasma samples were analyzed using solid phase extraction techniques in the calibration range of 0.500 ng/mL to 1000.000 ng/mL.
Data were presented with Mean±SD (standard deviation) and compared with 1-(2-thien-2′-yl-2-oxo-ethyl)-3-(methanesulfonyl hydrazine carbonyl) pyridinium compound PK data obtained after oral administration of solution of 1-(2-thien-2′-yl-2-oxo-ethyl)-3-(methanesulfonyl hydrazine carbonyl) pyridinium chloride in water under similar conditions.

The conditions of data set [3]: phase I clinical studies, humans; cited from earlier work.
The conditions of data set [4]: clinical studies, administered orally; cited from earlier work.
Data set [5] has as its system animal models of Type II diabetes. The settings on record: cited from earlier work.

With “1-(2-thien-2′-yl-2-oxo-ethyl)-3-(methanesulfonyl hydrazine carbonyl) pyridinium bromide”, the bioavailability result in data set [1] was “very low”.

Regarding “1-(2-thien-2′-yl-2-oxo-ethyl)-3-(methanesulfonyl hydrazine carbonyl) pyridinium chloride”, in data set [2], the AUClast amounted to 222.86 ng·h/mL and the Cmax is 85.764 ng/mL. Moreover, in data set [3], the oral bioavailability result is “very low”. In data set [4], the safety and tolerability entry is “safe and well tolerated”. Moreover, the “effect on cardiomyopathy and nephropathy” value in data set [5] is “improve cardiomyopathy and nephropathy”.

The Cmax is the peak of the concentration-time curve.
